Test results as given in ChEMBL document CHEMBL3992499, “Synthesis, biological evaluation, QSAR and molecular dynamics simulation studies of potential fibroblast growth factor receptor 1 inhibitors for the treatment of gastric cancer” (Eur J Med Chem, 2017).
The source made the active and inactive calls. No cut-off for these calls is given here.

How the values were obtained:
SGC-7901 [1] = assay: Antiproliferative activity against human SGC7901 cells after 72 hrs by MTT assay; details: SGC-7901, 72 h
BGC-823 = assay: Antiproliferative activity against human BGC823 cells after 72 hrs by MTT assay; details: BGC-823, 72 h
MGC-803 = assay: Antiproliferative activity against human MGC803 cells after 72 hrs by MTT assay; details: MGC-803, 72 h
SGC-7901 [2] = assay: Induction of apoptosis in human SGC7901 cells assessed as increase in cleaved PARP expression level at 10 uM after 48 hrs by Western blot method; format: functional, cell-based
SGC-7901 [3] = assay: Induction of apoptosis in human SGC7901 cells assessed as decrease in Bcl2 expression level after 48 hrs by Western blot method; format: functional, cell-based
SGC-7901 [4] = assay: Cell cycle arrest in human SGC7901 cells assessed as accumulation at G0/G1 phase after 8 hrs by propidium iodide staining based flow cytometry; format: functional
SGC-7901 [5] = assay: Induction of apoptosis in human SGC7901 cells assessed as chromatin condensation after 12 hrs by Hoechst 33342 staining based fluorescence microscopic method; format: functional, cell-based
SGC-7901 [6] = assay: Induction of apoptosis in human SGC7901 cells assessed as decrease in Bcl2 expression level at 10 uM after 48 hrs by Western blot method; format: functional, cell-based
SGC-7901 [7] = assay: Induction of apoptosis in human SGC7901 cells assessed as increase in cleaved PARP expression level after 48 hrs by Western blot method; format: functional, cell-based
SGC-7901 [8] = assay: Cell cycle arrest in human SGC7901 cells assessed as reduction in G2/M phase up to 20 uM after 8 hrs by propidium iodide staining based flow cytometry; format: functional
SGC-7901 [9] = assay: Induction of apoptosis in human SGC7901 cells assessed as nuclear fragmentation up to 20 uM after 12 hrs by Hoechst 33342 staining based fluorescence microscopic method; format: functional, cell-based
SGC-7901 [10] = assay: Induction of apoptosis in human SGC7901 cells assessed as downregulation of Cyclin D1 expression by western blot method; format: functional, cell-based

Row | SMILES | IC50 (SGC-7901 [1]) [µM] | IC50 (BGC-823) [µM] | IC50 (MGC-803) [µM] | Activity (SGC-7901 [2]) | Activity (SGC-7901 [3]) | Activity (SGC-7901 [4]) | Activity (SGC-7901 [5]) | Activity (SGC-7901 [6]) | Activity (SGC-7901 [7]) | Activity (SGC-7901 [8]) | Activity (SGC-7901 [9]) | Activity (SGC-7901 [10])
1 | COc1cc(/C=C/C(=O)/C=C/c2ccc(N3CCCC3)cc2)ccc1O | 8.2 | 21.2 | 12.3 | – | – | – | – | – | – | – | – | –
2 | COc1cc(/C=C2\CCC/C(=C\c3ccc(N4CCCCC4)cc3)C2=O)ccc1OC(=O)C(C)C | 18.8 | 31.5 | 11.8 | – | – | – | – | – | – | – | – | –
3 | CCC(=O)Oc1ccc(/C=C2\CC/C(=C\c3ccc(OC(=O)CC)c(OC)c3)C2=O)cc1OC | 4.7 | 11.9 | 8.3 | – | – | – | – | – | – | – | – | –
4 | CCN(CC)c1ccc(/C=C/C(=O)/C=C/c2ccc(O)c(OC)c2)cc1 | 8.2 | 2.5 | 2.1 | Active | Dose-dependent effect | Dose-dependent effect | Dose-dependent effect | Active | Dose-dependent effect | Active | Active | Dose-dependent effect
5 | COc1cc(/C=C2\CC/C(=C\c3c[nH]c4ccc(Br)cc34)C2=O)ccc1O | 9.6 | 2 | 2.6 | Active | Dose-dependent effect | Dose-dependent effect | Dose-dependent effect | Active | Dose-dependent effect | Active | Active | Dose-dependent effect
6 | CC(Cc1ccc(O)c(O)c1)C(C)Cc1ccc(O)c(O)c1 (configuration not stated) [NORDIHYDROGUAIARETIC ACID] | > 60 | > 60 | 45.8 | – | – | – | – | – | – | – | – | –
7 | COc1cc(/C=C2\CC/C(=C\c3ccc(OC(=O)C(C)C)c(OC)c3)C2=O)ccc1OC(=O)C(C)C | 5.7 | 10.1 | 5 | – | – | – | – | – | – | – | – | –
8 | COc1cc(CCc2cc(NC(=O)c3ccc(N4C[C@@H](C)N[C@@H](C)C4)cc3)n[nH]2)cc(OC)c1 [FEXAGRATINIB] | 2.8 | 7.9 | 6.2 | – | – | – | – | – | – | – | – | –
